Results published in patent US20210169984A1, “SENSITIZING CANCER TO DEATH RECEPTOR AGONISTS WITH KINASE INHIBITORS” (The Johns Hopkins University, priority 2016, published 2021).
Where a name gives a salt, the structure may show the parent alone.

Columns and labels:
Type in all cases: cell-based, human
[1] = system: LNCAP prostate adenocarcinoma cells; assay: KI library screen for TRAIL sensitization
From the text: (§1) A library of KIs was screened for TRAIL sensitization in various TRAIL-resistant cancer cells, including: HT29 (CRC), MDA-MB-231 (breast), LNCAP (prostate), DU145 (prostate), PC3 (prostate) and A549 (lung). […] The 355 KIs comprised of compounds targeting diverse kinases, including multi kinases, RTK (receptor kinase tyrosine), PI3K (phosphinistide 3-kinase), aurora kinases, including […] (mitogen-activated protein kinase). […] The interaction between KIs and TRAIL had been previously explored in vitro with the tyrosine KI sorafenib, a drug similar to regorafenib. However, such studies were mostly performed on cellular levels and not in in vivo models, combined with systemically administered recombinant TRAIL. Although a similar structure, regorafenib was newly approved in 2012. The interactions between the three other selected KIs and TRAIL have not been previously reported, in vitro or in vivo.

[2] = system: MDA-MB-231 breast cancer cells; assay: KI library screen for TRAIL sensitization
From the text: as §1

[3] = system: A549 lung carcinoma cells; assay: KI library screen for TRAIL sensitization
From the text: as §1

HT29 (CRC) cells = assay: KI library screen for TRAIL sensitization (KI pretreatment, then TRAILPEG; MTT cell death assay); settings: for efficacy when combined with TRAILPEG (relative cell death, KI+TRAILPEG / KI alone): HT29 cells pretreated with KI for 24 hours before TRAILPEG; for KIs that sensitize cancer cells to TRAIL-based agents: HT-29 colorectal adenocarcinoma
Experimental: The screening is performed using an MTT cell death assay in CRC cells with different TRAIL sensitivities.

[4] = system: HP LNCAP prostate adenocarcinoma cells; assay: KI library screen for TRAIL sensitization
From the text: as §1
Regorafenib potentiated TRAIL-induced apoptosis in prostate cancer cells (LNCAP, HPLNCAP (High Passages LNCAP), DU-145 and PC-3) when combined with TRAILPEG (1 μg/mL) (FIG. 5). After treating cells with regorafenib (5 μM), caspases and anti-apoptotic proteins were analyzed by western blotting (FIG. 6A-FIG. 6C). […] Data confirmed that FDA-approved KIs or KIs under clinical development synergized with long-acting TRAILPEG by overcoming TRAIL-resistance through unique TRAIL sensitization mechanisms.

COc1cc2ncnc(Nc3ccc(Cl)cc3F)c2cc1OC [ZM 306416]
KIs that sensitize cancer cells to TRAIL-based agents [1]: Example KIs that sensitize cancer cells to TRAIL-based agents.

CCCCOc1c(C(=O)c2c(F)cc(C)cc2F)c[nH]c2nncc1-2 [BMS-265246]
KIs that sensitize cancer cells to TRAIL-based agents [2]: Example KIs that sensitize cancer cells to TRAIL-based agents.
KIs that sensitize cancer cells to TRAIL-based agents [3]: Example KIs that sensitize cancer cells to TRAIL-based agents.

O=C(Nc1ccc(OC(F)(F)F)cc1)c1sccc1NCc1ccnc2ccccc12 [OSI-930]
efficacy when combined with TRAILPEG (relative cell death, KI+TRAILPEG / KI alone) (HT29 (CRC) cells): synergistic efficacy
KIs that sensitize cancer cells to TRAIL-based agents (HT29 (CRC) cells): Example KIs that sensitize cancer cells to TRAIL-based agents.

CC(C)(C)c1cc(/C=C(\C#N)C(N)=S)cc(C(C)(C)C)c1O [Tyrphostin AG 879]
KIs that sensitize cancer cells to TRAIL-based agents [4]: Example KIs that sensitize cancer cells to TRAIL-based agents.

CC[C@H](Nc1ncnc2[nH]cnc12)c1nc2cccc(F)c2c(=O)n1-c1ccccc1 [CAL-101 (Idelalisib, GS-1101), Idelalisib]
efficacy when combined with TRAILPEG (relative cell death, KI+TRAILPEG / KI alone) (HT29 (CRC) cells): synergistic efficacy
KIs that sensitize cancer cells to TRAIL-based agents (HT29 (CRC) cells): Example KIs that sensitize cancer cells to TRAIL-based agents.

Cc1cnc(Nc2ccc(N3CCN(C)CC3)cc2)nc1Nc1cccc(S(=O)(=O)NC(C)(C)C)c1 [TG101209]
KIs that sensitize cancer cells to TRAIL-based agents [2]: Example KIs that sensitize cancer cells to TRAIL-based agents.

CCN(CC)CCNC(=O)c1c(C)[nH]c(/C=C2\C(=O)Nc3ccc(F)cc32)c1C [Sunitinib Malate]
KIs that sensitize cancer cells to TRAIL-based agents [1]: Example KIs that sensitize cancer cells to TRAIL-based agents.

C[C@]1(O)C[C@@H](c2nc(-c3ccc4ccc(-c5ccccc5)nc4c3)c3c(N)nccn32)C1 [OSI-906 (Linsitinib), Linsitinib]
KIs that sensitize cancer cells to TRAIL-based agents [1]: Example KIs that sensitize cancer cells to TRAIL-based agents.

Cc1cc(CN2CCN(c3c(Br)cnc4nc(-c5ccc(N6CCN(C)CC6)cc5)[nH]c34)CC2)no1 [CCT137690]
KIs that sensitize cancer cells to TRAIL-based agents [2]: Example KIs that sensitize cancer cells to TRAIL-based agents.

CCc1cc(Nc2nccc(-c3c(-c4ccc(OC)c(C(=O)Nc5c(F)cccc5F)c4)nc4ccccn34)n2)c(OC)cc1N1CCC(N2CCN(S(C)(=O)=O)CC2)CC1 [GSK1904529A]
KIs that sensitize cancer cells to TRAIL-based agents [3]: Example KIs that sensitize cancer cells to TRAIL-based agents.

CC[C@@H]1C(=O)N(C)c2cnc(Nc3ccc(C(=O)N[C@H]4CC[C@H](N5CCN(CC6CC6)CC5)CC4)cc3OC)nc2N1C(C)C [Volasertib (BI 6727), Volasertib]
KIs that sensitize cancer cells to TRAIL-based agents [2]: Example KIs that sensitize cancer cells to TRAIL-based agents.

CCOc1cc2ncc(C#N)c(Nc3ccc(F)c(Cl)c3)c2cc1NC(=O)/C=C/CN(C)C [Pelitinib (EKB-569), Pelitinib]
KIs that sensitize cancer cells to TRAIL-based agents [2]: Example KIs that sensitize cancer cells to TRAIL-based agents.

Cc1cc(Nc2cc(CN3CCOCC3)c3nc(C)c(Cc4ccc(Cl)cc4F)n3n2)n[nH]1 [LY2784544]
KIs that sensitize cancer cells to TRAIL-based agents [2]: Example KIs that sensitize cancer cells to TRAIL-based agents.

CC[C@H](CO)Nc1nc(NCc2ccccc2)c2ncn(C(C)C)c2n1 [Roscovitine (Seliciclib, CYC202), Roscovitine]
KIs that sensitize cancer cells to TRAIL-based agents [2]: Example KIs that sensitize cancer cells to TRAIL-based agents.

CS(=O)(=O)CCNCc1ccc(-c2ccc3ncnc(Nc4ccc(OCc5cccc(F)c5)c(Cl)c4)c3c2)o1 [Lapatinib (GW-572016) Ditosylate, Lapatinib]
KIs that sensitize cancer cells to TRAIL-based agents [3]: Example KIs that sensitize cancer cells to TRAIL-based agents.
KIs that sensitize cancer cells to TRAIL-based agents [1]: Example KIs that sensitize cancer cells to TRAIL-based agents.

Cn1c(=O)n(-c2ccc(C(C)(C)C#N)cc2)c2c3cc(-c4cnc5ccccc5c4)ccc3ncc21 [BEZ235 (NVP-BEZ235, Dactolisib), Dactolisib]
efficacy when combined with TRAILPEG (relative cell death, KI+TRAILPEG / KI alone) (HT29 (CRC) cells): synergistic efficacy
KIs that sensitize cancer cells to TRAIL-based agents (HT29 (CRC) cells): Example KIs that sensitize cancer cells to TRAIL-based agents.

CC(C)(C)c1cnc(CSc2cnc(NC(=O)C3CCNCC3)s2)o1 [SNS-032 (BMS-387032)]
KIs that sensitize cancer cells to TRAIL-based agents [2]: Example KIs that sensitize cancer cells to TRAIL-based agents.
KIs that sensitize cancer cells to TRAIL-based agents [3]: Example KIs that sensitize cancer cells to TRAIL-based agents.

COc1cccc(-c2cc(=O)c3ccccc3o2)c1N [PD98059]
efficacy when combined with TRAILPEG (relative cell death, KI+TRAILPEG / KI alone) (HT29 (CRC) cells): synergistic efficacy
KIs that sensitize cancer cells to TRAIL-based agents (HT29 (CRC) cells): Example KIs that sensitize cancer cells to TRAIL-based agents.

O=C1NCCc2[nH]c(-c3ccncc3)cc21 [PHA-767491]
KIs that sensitize cancer cells to TRAIL-based agents [2]: Example KIs that sensitize cancer cells to TRAIL-based agents.

CCS(=O)(=O)c1cccc(-c2cc(C(=O)NC3CCN(C)CC3)c(C)c3[nH]c4ncc(C)cc4c23)c1 [TAK-901]
KIs that sensitize cancer cells to TRAIL-based agents [2]: Example KIs that sensitize cancer cells to TRAIL-based agents.

CCN1CCN(c2ccc(Nc3cc(N(C)C(=O)Nc4c(Cl)c(OC)cc(OC)c4Cl)ncn3)cc2)CC1 [BGJ398 (NVP-BGJ398)]
KIs that sensitize cancer cells to TRAIL-based agents [3]: Example KIs that sensitize cancer cells to TRAIL-based agents.

N#CCNC(=O)c1ccc(-c2ccnc(Nc3ccc(N4CCOCC4)cc3)n2)cc1 [CYT387]
KIs that sensitize cancer cells to TRAIL-based agents [2]: Example KIs that sensitize cancer cells to TRAIL-based agents.

COc1cc2ncc(-c3ccccc3)nc2cc1OC [Tyrphostin AG 1296]
KIs that sensitize cancer cells to TRAIL-based agents [1]: Example KIs that sensitize cancer cells to TRAIL-based agents.

CN1CC[C@H](c2c(O)cc(O)c3c(=O)cc(-c4ccccc4Cl)oc23)[C@H](O)C1 [Flavopiridol HCl]
KIs that sensitize cancer cells to TRAIL-based agents [2]: Example KIs that sensitize cancer cells to TRAIL-based agents.
KIs that sensitize cancer cells to TRAIL-based agents [3]: Example KIs that sensitize cancer cells to TRAIL-based agents.

Cc1[nH]nc2ccc(-c3cncc(OC[C@@H](N)Cc4ccccc4)c3)cc12 [A-674563]
KIs that sensitize cancer cells to TRAIL-based agents [2]: Example KIs that sensitize cancer cells to TRAIL-based agents.

CCO.N#CC(=C(/N)Sc1ccccc1N)/C(C#N)=C(\N)Sc1ccccc1N [U0126-EtOH]
efficacy when combined with TRAILPEG (relative cell death, KI+TRAILPEG / KI alone) (HT29 (CRC) cells): synergistic efficacy
KIs that sensitize cancer cells to TRAIL-based agents (HT29 (CRC) cells): Example KIs that sensitize cancer cells to TRAIL-based agents.

CC(C)CC(=O)Nc1[nH]nc2c1CN(C(=O)C1CCN(C)CC1)C2(C)C [PHA-793887]
KIs that sensitize cancer cells to TRAIL-based agents [2]: Example KIs that sensitize cancer cells to TRAIL-based agents.

O=C(NC1CCNCC1)c1[nH]ncc1NC(=O)c1c(Cl)cccc1Cl [AT7519]
KIs that sensitize cancer cells to TRAIL-based agents [3]: Example KIs that sensitize cancer cells to TRAIL-based agents.

O=c1[nH]c2ccc(Cl)cc2c(N[C@@H]2CN3CCC2CC3)c1-c1nc2ccccc2[nH]1 [CHIR-124]
KIs that sensitize cancer cells to TRAIL-based agents [2]: Example KIs that sensitize cancer cells to TRAIL-based agents.
KIs that sensitize cancer cells to TRAIL-based agents [3]: Example KIs that sensitize cancer cells to TRAIL-based agents.

C=CC(=O)Nc1cc2c(Nc3ccc(F)c(Cl)c3)ncnc2cc1OCCCN1CCOCC1 [Canertinib (CI-1033), Canertinib]
KIs that sensitize cancer cells to TRAIL-based agents [2]: Example KIs that sensitize cancer cells to TRAIL-based agents.

CN(c1ncccc1CNc1nc(Nc2ccc3c(c2)CC(=O)N3)ncc1C(F)(F)F)S(C)(=O)=O [PF-00562271]
KIs that sensitize cancer cells to TRAIL-based agents [2]: Example KIs that sensitize cancer cells to TRAIL-based agents.

Cc1cc(Nc2nc(N[C@@H](C)c3ccc(F)cc3)c(C#N)cc2F)[nH]n1 [AZ 960]
KIs that sensitize cancer cells to TRAIL-based agents [2]: Example KIs that sensitize cancer cells to TRAIL-based agents.

CNC(=O)c1nn(C)c2c1C(C)(C)Cc1cnc(Nc3ccc(N4CCN(C)CC4)cc3)nc1-2 [Milciclib (PHA-848125), Milciclib]
KIs that sensitize cancer cells to TRAIL-based agents [2]: Example KIs that sensitize cancer cells to TRAIL-based agents.

CHIR-98014
KIs that sensitize cancer cells to TRAIL-based agents [2]: Example KIs that sensitize cancer cells to TRAIL-based agents.

N#CC1(c2ccc(NC(=O)c3cccnc3NCc3ccncc3)cc2)CCCC1 [Apatinib]
KIs that sensitize cancer cells to TRAIL-based agents [3]: Example KIs that sensitize cancer cells to TRAIL-based agents.

Cc1ncc(-c2ccnc(Nc3ccc(S(C)(=O)=O)cc3)n2)n1C(C)C [AZD5438]
KIs that sensitize cancer cells to TRAIL-based agents [3]: Example KIs that sensitize cancer cells to TRAIL-based agents.

Cc1cc(Nc2cc(N3CCN(C)CC3)nc(/C=C/c3ccccc3)n2)n[nH]1 [ENMD-2076]
efficacy when combined with TRAILPEG (relative cell death, KI+TRAILPEG / KI alone) (HT29 (CRC) cells): synergistic efficacy
KIs that sensitize cancer cells to TRAIL-based agents (HT29 (CRC) cells): Example KIs that sensitize cancer cells to TRAIL-based agents.

CNC(=O)c1ccc(-c2cnc3ncc(Cc4ccc5ncccc5c4)n3n2)cc1F [INCB28060]
KIs that sensitize cancer cells to TRAIL-based agents [1]: Example KIs that sensitize cancer cells to TRAIL-based agents.

Cc1ccc([N+](=O)[O-])cc1S(=O)(=O)N(C)/N=C/c1cnc2ccc(Br)cn12 [PIK-75]
KIs that sensitize cancer cells to TRAIL-based agents [2]: Example KIs that sensitize cancer cells to TRAIL-based agents.
